Results as given in article PMC9317861, “In Vitro Assessment of Pesticides Toxicity and Data Correlation with Pesticides Physicochemical Properties for Prediction of Toxicity in Gastrointestinal and Skin Contact Exposure” (Toxics, 2022).
Where two headings read alike, the source gives them in different places.

Key:
A431 cells = assay: Alamar Blue cell viability/cytotoxicity assay, A431; format: cell-based; details: Homo sapiens
Text: (§1) To assess the cytotoxic activity of GLY, IMD and IMZ, six cell lines, namely Caco-2 (human epithelial colorectal adenocarcinoma; Cell Lines Service (CLS), Eppelheim, Germany), HepG2 (human hepatocellular carcinoma; ATCC, Rockville, USA), A431 (human epidermoid carcinoma; CLS, Eppelheim, Germany), HaCaT (human keratinocytes, CLS, Eppelheim, Germany), SK-MEL-5 (human skin melanoma; CLS, Eppelheim, Germany), and RAW 264.7 (mouse macrophages, Abelson murine leukaemia virus-induced tumour; CLS, Eppelheim, Germany) cells, were used. All cell lines were cultured in complete culture media, composed of Dulbecco’s Modified Eagle Media (DMEM), supplemented with 1 mM L-glutamine, 10% (v/v) foetal bovine serum (FBS), and antibiotics (penicillin at 100 U/mL, and streptomycin at 100 μg/mL) and maintained in an incubator (5% CO2/95% air; 37 °C, controlled humidity). Cells were grown, in T25 culture flasks, to near confluence.
(§2) Near confluence, all cell lines, except RAW 264.7 cells, were subjected to enzymatic treatment (trypsin-EDTA) for detachment and subculture, as described by Andreani et al. and by Silva et al., which was stopped using complete culture medium (1:1, trypsin:culture media) as soon as cells were detached. RAW 264.7 cells were scratched off from the culture flasks using a cell scratcher (Orange Scientific; Braine-L’Alleud, Belgium), handling was performed, as described by Silva et al.. Once detached from the flasks, cells were gently separated and re-suspended using a Pasteur pipette, counted using an automated cell counter (TC10™, BIORAD, Lisbon, Portugal). Then, cells were re-suspended in fresh culture media (at 5 × 10^4 cells/mL) and seeded into 96-well microplates (100 µL/well) which were maintained in an incubator, for 48 h (to adhere and stabilize) before being used. For other details, see [24, 25].
(§3) Alamar Blue® (AB) assay was performed to assess the in vitro effect of the pesticides on cell viability. In summary, cells seeded into 96-well microplates were treated with various concentrations of the pesticides (GLY: 0–1 mM; IMD: 0–1 mM; IMZ: 0–0.3 mM). Test solutions were prepared in FBS-free culture media by diluting the appropriate volume of respective stock solution. A stock solution of GLY was prepared in water (at 40 mM), and stock solutions of IMD and IMZ were prepared in DMSO (at 20 mM). After 24 h or 48 h of exposure, the test solutions were removed and immediately replaced with Alamar Blue solution (100 µL/well; 10% (v/v) in FBS-free medium), followed by an additional 5 h incubation. Then, absorbance was read at 570 and 620 nm using a microplate reader (Multiskan EX; MTX Lab Systems, Inc., Bradenton, FL, USA), and the percentage of AB reduction was calculated according to manufacturers’ instructions, as described. Cell viability was calculated and expressed as percentage of control cells (non-exposed cells).

HaCaT cells [1] = assay: Alamar Blue cell viability/cytotoxicity assay, HaCaT; format: cell-based; details: Homo sapiens
Text: as §1, §2, §3

SK-MEL-5 cells = assay: Alamar Blue cell viability/cytotoxicity assay, SK-MEL-5; format: cell-based, human; details: for IC50: Homo sapiens
Description: (§4) Cells were grown, in T25 culture flasks, to near confluence.
as §2, §3

Caco-2 cells [2] = assay: Alamar Blue cell viability/cytotoxicity assay, Caco-2; format: cell-based, human; details: for IC50: Homo sapiens; for cell viability reduction: Caco-2, 300 µM
Description: as §4, §2, §3

HepG2 cells [3] = assay: Alamar Blue cell viability/cytotoxicity assay, HepG2; format: cell-based, human; details: for IC50: Homo sapiens
Text: as §1, §2, §3

RAW 264.7 cells = assay: Alamar Blue cell viability/cytotoxicity assay, RAW 264.7; format: cell-based; details: Mus musculus
Text: as §1, §2, §3

[4] = test system: Caco-2, HepG2, A431, HaCaT, SK-MEL-5 and RAW 264.7 cells; assay: Alamar Blue cell viability, all tested cell lines; format: cell-based; details: up to 1 mM (highest tested concentration)
Text: To assess the cytotoxic activity of GLY, IMD and IMZ, six cell lines, namely Caco-2 (human epithelial colorectal adenocarcinoma; Cell Lines Service (CLS), Eppelheim, Germany), HepG2 (human hepatocellular carcinoma; ATCC, Rockville, USA), A431 (human epidermoid carcinoma; CLS, Eppelheim, Germany), HaCaT (human keratinocytes, CLS, Eppelheim, Germany), SK-MEL-5 (human skin melanoma; CLS, Eppelheim, Germany), and RAW 264.7 (mouse macrophages, Abelson murine leukaemia virus-induced tumour; CLS, Eppelheim, Germany) cells, were used. […]
Near confluence, all cell lines, except RAW 264.7 cells, were subjected to enzymatic treatment (trypsin-EDTA) for detachment and subculture, as described by Andreani et al. and by Silva et al., which was stopped using complete culture medium (1:1, trypsin:culture media) as soon as cells were detached. […] Once detached from the flasks, cells were gently separated and re-suspended using a Pasteur pipette, counted using an automated cell counter (TC10™, BIORAD, Lisbon, Portugal). […]
Alamar Blue® (AB) assay was performed to assess the in vitro effect of the pesticides on cell viability. […] Then, absorbance was read at 570 and 620 nm using a microplate reader (Multiskan EX; MTX Lab Systems, Inc., Bradenton, FL, USA), and the percentage of AB reduction was calculated according to manufacturers’ instructions, as described. […]

Caco-2 cells [5] = details: cited from earlier work; for IC50: Caco-2, 24 h
HepG2 cells [6] = details: cited from earlier work
SK-MEL-2 = test system: SK-MEL-2; design: method as in PMID 23535362; details: SK-MEL-2, 72 h exposure; cited from earlier work
HaCaT cells [7] = details: cited from earlier work
[8] = cited from earlier work
[9] = Alamar Blue cell viability/cytotoxicity assay, SK-MEL-5; format: cell-based, human; details: human; SK-MEL-5, 50 µM, 48 h
Description: as §4, §2, §3

[10] = Alamar Blue cell viability/cytotoxicity assay, Caco-2; format: cell-based, human; details: human, 48 h
Description: as §4, §2, §3

[11] = n-octanol/water; Pubchem and INCHEM; cited from earlier work
[12] = Figure 4A; cited from earlier work
[13] = cited from earlier work; remark: listed apart in the source
CYP3A4 = test system: CYP3A4; design: method as in PMID 19070657; details: cited from earlier work

## O=C(O)CNCP(=O)(O)O [Glyphosate, N-phosphonomethyl-glycine]
A431 cells; A-431, 24 h
  IC50: > 1000 µM
A431 cells; A-431, 48 h
  IC50: > 1000 µM
HaCaT cells [1]; 24 h
  IC50: > 1000 µM
HaCaT cells [1]; 48 h
  IC50: > 1000 µM
SK-MEL-5 cells; SK-MEL-5, 24 h
  IC50: > 1000 µM
SK-MEL-5 cells; SK-MEL-5, 48 h
  IC50: > 1000 µM
SK-MEL-5 cells; SK-MEL-5, 1 mM, 24 h
  reduction in cell viability: 23.3%
SK-MEL-5 cells; SK-MEL-5, 1 mM, 48 h
  reduction in cell viability: 18.7%
Caco-2 cells [2]; Caco-2, concentrations up to 1 mM, 24 h or 48 h
  effect on cell viability: no significant reduction in cell viability
Caco-2 cells [2]; Caco-2, 24 h
  IC50: > 1000 µM
Caco-2 cells [2]; Caco-2, 48 h
  IC50: > 1000 µM
HepG2 cells [3]; HepG2, concentrations up to 1 mM
  effect on cells: not affected
HepG2 cells [3]; HepG2, 24 h
  IC50: > 1000 µM
HepG2 cells [3]; HepG2, 48 h
  IC50: > 1000 µM
RAW 264.7 cells; RAW264.7, 24 h
  IC50: > 1000 µM
RAW 264.7 cells; RAW264.7, 48 h
  IC50: > 1000 µM
[4]
  effect on cell viability: did not reduce cell viability
[4]; listed as GLY
  effect on cell viability: not able to induce cell death below 50%
Caco-2 cells [5]; conversion of mg/mL value
  concentrations that disrupted Caco-2 monolayers (loss of membrane integrity): > 59000 µM
Caco-2 cells [5]
  concentrations that disrupted Caco-2 monolayers (loss of membrane integrity): higher than 10 mg/mL
HepG2 cells [6]; HepG2, up to 3.5 µg/mL (20.7 µM), 4 h and 24 h
  effect on cell proliferation: slight increase in cell proliferation
SK-MEL-2
  IC50: 11 µM
HaCaT cells [7]; 18 h exposure
  IC50: 30000 µM
[8]
  solubility in organic solvents: very low solubility in organic solvents

## C=CCOC(Cn1ccnc1)c1ccc(Cl)cc1Cl (centres unmarked) [Imazalil, imazalil]
A431 cells; A-431, A431, 24 h exposure, mean ± S.D., read-out: IC50
  IC50: 145 ± 1.7 µM
A431 cells; A-431, A431, 48 h exposure, mean ± S.D., read-out: IC50
  IC50: 117 ± 6.5 µM
HaCaT cells [1]; 24 h exposure, mean ± S.D., read-out: IC50
  IC50: 174 ± 15.3 µM
HaCaT cells [1]; 48 h exposure, mean ± S.D., read-out: IC50
  IC50: 120 ± 6.2 µM
[9]
  viability at 48 h, 50 µM: ~80%
SK-MEL-5 cells; SK-MEL-5, 24 h exposure, mean ± S.D., read-out: IC50
  IC50: 156 ± 9 µM
SK-MEL-5 cells; SK-MEL-5, 48 h exposure, mean ± S.D., read-out: IC50
  IC50: 76.7 ± 1.8 µM
SK-MEL-5 cells; SK-MEL-5, 50 µM, 48 h
  reduction in cell viability: about 20%
[10]; Caco-2, 200 µM
  viability at 48 h, 200 µM: 39.7%
Caco-2 cells [2]; 24 h
  cell viability reduction: 94.13%
Caco-2 cells [2]; 48 h
  cell viability reduction: 98.06%
Caco-2 cells [2]; Caco-2, 24 h exposure, mean ± S.D., read-out: IC50
  IC50: 254 ± 3.4 µM
Caco-2 cells [2]; Caco-2, 48 h exposure, mean ± S.D., read-out: IC50
  IC50: 186 ± 2.27 µM
HepG2 cells [3]; HepG2
  concentration at which a significant reduction in cell viability was observed: 50 µM
HepG2 cells [3]; HepG2, 24 h exposure, mean ± S.D., read-out: IC50
  IC50: 93.7 ± 2.2 µM
HepG2 cells [3]; HepG2, 48 h exposure, mean ± S.D., read-out: IC50
  IC50: 47.1 ± 0.5 µM
RAW 264.7 cells; RAW264.7, RAW 264.7, 24 h exposure, mean ± S.D., read-out: IC50
  IC50: 31.3 ± 2.7 µM
RAW 264.7 cells; RAW264.7, RAW 264.7, 48 h exposure, mean ± S.D., read-out: IC50
  IC50: 7.21 ± 4.5 µM
Caco-2 cells [5]; conversion of µg/mL value, read-out: IC50
  IC50: ~100 µM
Caco-2 cells [5]
  IC50: 30 µg/mL
[11]
  log Pow: 4.56
[12]
  H-donor acceptor count: 2
[13]
  pKa: 6.53
CYP3A4
  CYP3A4 inhibition: inhibit CYP3A4

## O=[N+]([O-])NC1=NCCN1Cc1ccc(Cl)nc1 [Imidacloprid, imidacloprid]
A431 cells; A-431, 24 h
  IC50: 573 ± 10.4 µM
A431 cells; A-431, 48 h
  IC50: 389 ± 9.2 µM
HaCaT cells [1]; 24 h
  IC50: 495 ± 19.4 µM
HaCaT cells [1]; 48 h
  IC50: 482 ± 12.9 µM
SK-MEL-5 cells; SK-MEL-5, 24 h
  IC50: 507 ± 22.1 µM
SK-MEL-5 cells; SK-MEL-5, 48 h
  IC50: 319 ± 11.5 µM
SK-MEL-5 cells; SK-MEL-5, 600 µM, 48 h
  reduction in cell viability: ~ 88%
[10]; Caco-2, 600 µM, read-out: cell viability (% of control)
  viability at 48 h, 600 µM: 68.5%
[10]; Caco-2, 1 mM, read-out: cell viability (% of control)
  viability at 48 h, 1 mM: 27.3%
Caco-2 cells [2]; Caco-2, 24 h
  IC50: > 1000 µM
Caco-2 cells [2]; Caco-2, 48 h
  IC50: 832 ± 29.6 µM
HepG2 cells [3]; HepG2, 24 h
  IC50: 624 ± 24.3 µM
HepG2 cells [3]; HepG2, 48 h
  IC50: 620 ± 10.6 µM
RAW 264.7 cells; RAW264.7, 24 h
  IC50: 306 ± 22.4 µM
RAW 264.7 cells; RAW264.7, 48 h
  IC50: 307 ± 22.1 µM
Caco-2 cells [5]; Caco-2, 96 h, 0.25 µg/mL
  cell viability: 81%
Caco-2 cells [5]; Caco-2, 96 h, conversion of µg/mL value
  concentrations cytotoxic / reducing cell viability: > 0.98 µM
Caco-2 cells [5]; Caco-2, 96 h, formulation from Bayer
  concentrations cytotoxic / reducing cell viability: above 0.25 µg/mL
HepG2 cells [6]; HepG2, 24 h
  concentration range dose-dependently reducing cell viability: 500 to 2000 µM
HepG2 cells [6]; HepG2, 48 h
  concentration range dose-dependently reducing cell viability: 250 to 2000 µM
HaCaT cells [7]; 24 h
  concentration reducing cell viability below 50%: 2350 µM
[11]
  log Pow: 0.57
[12]
  H-donor acceptor count: 4
